Earlier results as cited in patent US9782413B2, “Composition for treatment of essential thrombocythemia” (AOP ORPHAN PHARMACEUTICALS AG, priority 2010, dated 2017).

How the values were obtained:
[1] = after anagrelide administration
[2] = test system: phosphodiesterase (PDE) 3
[3] = test system: platelets

**Q.** For `O=C1NC2=Nc3ccc(Cl)c(Cl)c3CN2C1O` (stereo not shown) [3-hydroxyanagrelide], which “delay of peak plasma level compared to the parent drug” value [1] is on record?
**A.** about 45 mm

**Q.** What about the “phosphodiesterase (PDE) 3 inhibitory activity” value [2] of the same compound?
**A.** considerably more potent than anagrelide

**Q.** What does the source list for `NC1=Nc2ccc(Cl)c(Cl)c2CN1` [RL 603, 2-amino-5,6-dichloro-3,4-dihydroquinazolone]?
**A.** platelet reduction in vivo [3]: lacks these activities; phosphodiesterase (PDE) 3 inhibitory activity [2]: lacks these activities
